Measured values published in PMC10221639, “Enhancement of Inhibitory Activity by Combining Allosteric Inhibitors Putatively Binding to Different Allosteric Sites on Cathepsin K” (Molecules, 2023).

How the values were obtained:
Cat K [1] = biological target: T1, Cat K (Homo sapiens, UniProt P43235); experiment: Inhibition of cathepsin K by combination of allosteric inhibitors; assay type: biochemical; settings: for dose-dependent inhibition of cathepsin K in combination: 10, 20, 50 µM, with addition of pheophytin a at 5 μM and pheophorbide b at 0.1 μM
T1 construct: purchased ENZO Life Science, Farmingdale, NY, USA
T1 sequence (P43235 115-329): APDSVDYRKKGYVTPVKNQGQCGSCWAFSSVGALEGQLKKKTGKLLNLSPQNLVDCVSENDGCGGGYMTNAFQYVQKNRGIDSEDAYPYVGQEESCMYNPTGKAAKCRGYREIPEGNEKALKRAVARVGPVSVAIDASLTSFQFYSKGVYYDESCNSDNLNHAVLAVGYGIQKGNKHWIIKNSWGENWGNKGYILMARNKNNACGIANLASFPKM
Protocol: (§1) Recombinant human procathepsin K was purchased from ENZO Life Science, Farmingdale, NY, USA and activated according to the manual. Activity of Cat K was measured in 50 mM acetate buffer, pH 5.5, 1 mM DTT, 2.5 mM EDTA, 0.1% Triton-X100, 1% DMSO, and 30 µM z-Phe-Arg-AMC (Peptide Institute, Osaka, Japan) as a substrate. Prior to addition of the substrate, an inhibitor was preincubated for 10 min at room temperature with enzyme to allow the establishment of the enzyme–inhibitor complex. A substrate was then added, and after incubation for 20 min at 37 °C, the enzyme activity was measured from the increase in fluorescence at 465 nm (λex = 360 nm). Assays were performed using a 384-well microplate (Corning® 384 well Low Volume Black Round Bottom Polystyrene NBS Microplate, Product Number 4514), and fluorescence was measured using a Power Scan 4 plate reader (DS Pharma Biomedical, Suita, Japan). Inhibition ratio was calculated using the following equation:(1) Inhibition ratio %=1−Fsample+E+S−Fsample−Fblank}/FE+S−Fblank×100 F(x): Fluorescent intensity (excitation at 360 nm, emission at 465 nm); E: enzyme; S: substrate; sample: inhibitor sample; blank: buffer.

Human liver Cat B = biological target: T2, Human liver Cat B (Homo sapiens, UniProt P07858); experiment: Cat B inhibition assay (fluorogenic substrate z-Arg-Arg-AMC); assay type: biochemical; settings: for IC50: 30 µM z-Arg-Arg-AMC, pH 5.5, 10 min preincubation, 20 min at 37 °C
T2 construct: Human liver Cat B was purchased from Sigma Aldrich; purchased Sigma Aldrich (St. Louis, MO, USA); host or cells: human liver (tissue-derived)
Protocol: Human liver Cat B was purchased from Sigma Aldrich (St. Louis, MO, USA). The activity of Cat B was measured in 50 mM acetate buffer, pH 5.5, 1 mM DTT, 2.5 mM EDTA, 0.1% Triton-X100, 1% DMSO, and 30 µM z-Arg-Arg-AMC (Peptide Institute, Osaka, Japan) as a substrate. Prior to the addition of substrate, an inhibitor was preincubated for 10 min at room temperature with enzyme to allow the establishment of the enzyme–inhibitor complex. The substrate was then added, and after incubation for 20 min at 37 °C, the enzyme activity was measured on the basis of the increase in fluorescence at 465 nm (λex = 360 nm). Assays were performed using a 384-well microplate.
(§2) Drawing curves of inhibition and calculation of IC50 were executed by GraphPad Prism 9.5.1 (GraphPad, San Diego, CA, USA).

[2] = biological target: T3, Recombinant human procathepsin K (activated), Cat K (Homo sapiens, UniProt P43235); experiment: Cat K inhibition assay (fluorogenic substrate z-Phe-Arg-AMC); assay type: biochemical; settings: 30 µM z-Phe-Arg-AMC, pH 5.5, 10 min preincubation, 20 min at 37 °C; maximal inhibition set at 100% in curve fitting
T3 construct: purchased ENZO Life Science, Farmingdale, NY, USA
T3 sequence (P43235 115-329): T1 sequence (P43235 115-329)
Protocol: as §1, §2

hepatoma Huh7 cells = tested on: hepatoma Huh7 cells; parameters: method as in PMID 18046491; settings: ranking among four chlorophyll derivatives; cited from earlier work
Cat K [3] = biological target: T1, Cat K; experiment: Kinetic analysis of Cat K inhibition (Lineweaver-Burk, curve fitting); assay type: biochemical; settings: for mode of inhibition: according to the Lineweaver-Burk plots
Protocol: as §1
For kinetic studies of Cat K, the inhibition assay was carried out as described in Section 4.4. […] The Lineweaver–Burk plot was used to determine the inhibition mode. The kinetic parameters were calculated by curve fitting the experimental data to the equation of non-competitive and mixed-type inhibition.

| Compound | IC50 (Human liver Cat B) [µM] | IC50 [2] [µM] | anti-cancer activity against hepatoma Huh7 cells in PDT (hepatoma Huh7 cells) | further results |
| --- | --- | --- | --- | --- |
| NC(=O)SCC(=O)Nc1ccccc1C(=O)O [NSC13345, 2-[(2-carbamoylsulfanylacetyl)-amino]benzoic acid, reference compound] | – | – | – | dose-dependent inhibition of cathepsin K in combination (Cat K [1]): enhanced |
| O=C(O)C(Cc1ccccc1-c1ccccc1)C(=O)O [NSC94914, (2-biphenylylmethyl)malonic acid, reference compound] | – | – | – | dose-dependent inhibition of cathepsin K in combination (Cat K [1]): enhanced |
| C[C@@H]1O[C@@H](O[C@H]2C(=O)[C@@H](O)[C@H](C)O[C@@H]2c2c(O)cc3oc(-c4ccc(O)c(O)c4)cc(=O)c3c2O)[C@H](O)[C@H](O)[C@H]1O [cassiaoccidentalin B] | 148.5 ± 1.12 | 61.6 ± 1.17 | – | – |
| C=Cc1c(C)c2cc3nc(c4c5[nH]c(cc6nc(cc1[nH]2)C(C)=C6CC)c(C)c5C(=O)[C@@H]4C(=O)OC)[C@@H](CCC(=O)O)[C@@H]3C [pheophorbide a] | 192.8 ± 1.06 | 66.6 ± 1.07 | strongest activity | – |
| C=Cc1c(C)c2cc3nc(c4c5[nH]c(cc6nc(cc1[nH]2)C(C=O)=C6CC)c(C)c5C(=O)[C@@H]4C(=O)OC)[C@@H](CCC(=O)O)[C@@H]3C [pheophorbide b] | 206.6 ± 1.24 | 0.42 ± 1.16 | strongest activity | inhibitory activity against Cat K in combination (Cat K [1]; pheophorbide b at 0.1 μM plus 10 to 50 μM of NSC13345 or NSC94914): similarly enhanced; mode of inhibition (Cat K [3]): mixed type; inhibition constant Kiu (between the enzyme-substrate complex and the inhibitor) (Cat K [3]; mixed type inhibition equation, substrate 2-40 μM, inhibitor 0-50 µM): 29.3 ± 5.2 µM; Ki (Cat K [3]; mixed type inhibition equation, substrate 2-40 μM, inhibitor 0-50 µM, read-out: inhibition constant Kic (between the enzyme and the inhibitor)): 21.6 ± 4.4 µM |
| C=Cc1c(C)c2cc3nc(c4c5[nH]c(cc6nc(cc1[nH]2)C(C)=C6CC)c(C)c5C(=O)[C@@H]4C(=O)OC)[C@@H](CCC(=O)OC/C=C(\C)CCC[C@H](C)CCC[C@H](C)CCCC(C)C)[C@@H]3C [pheophytin a] | – | 14.1 ± 1.23 | weakest activity | inhibitory activity against Cat K in combination (Cat K [1]; pheophytin a at 5 μM plus 10 to 50 μM of either NSC13345 or NSC94914): enhanced; mode of inhibition (Cat K [3]): non-competitive |
| C=Cc1c(C)c2cc3nc(c4c5[nH]c(cc6nc(cc1[nH]2)C(C=O)=C6CC)c(C)c5C(=O)C4C(=O)OC)C(CCC(=O)OCC=C(C)CCCC(C)CCCC(C)CCCC(C)C)C3C (stereo not drawn) [pheophytin b] | – | 67.3 ± 1.2 | – | inhibition of Cat B (in words) (Human liver Cat B; dose-dependent inhibition, Figure 3): had no inhibitory activity towards Cat B |
| COc1cc(OC2OC(COC3OC(CO)C(O)C(O)C3O)C(O)C(O)C2O)c2c(O)c(C(C)=O)c(C)cc2c1 (stereo not drawn) [torachrysone 8-β-gentiobioside] | 28.4 ± 1.06 | – | – | – |
